“And” between values parts separate entries of the source, which are not always exact repeats. Equal entries are not always repeated. Toxic doses and inconclusive results are not listed.
System: L1210 leukemia ip in BDF1 mice, survival T/C
Experiment: NCI In Vivo Anticancer Drug Screen. Data for tumor model L1210 Leukemia (intraperitoneal) in B6D2F1 (BDF1) mice
Conditions: endpoint: mean survival time, higher = longer survival
Outline: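 Transplantable tumor model; survival measured in treated vs vehicle control mice. Value = treated/control.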

[1] = dose: 100.0 mg/kg/injection, schedule: Q04DX002 (ip), vehicle: Klucel (hydroxypropylcellulose) (HPC)
[2] = dose: 200.0 mg/kg/injection, schedule: Q04DX002 (ip), vehicle: Klucel (hydroxypropylcellulose) (HPC)
[3] = dose: 400.0 mg/kg/injection, schedule: Q04DX002 (ip), vehicle: Klucel (hydroxypropylcellulose) (HPC)
[4] = dose: 50.0 mg/kg/injection, schedule: Q01DX009 (ip), vehicle: saline with Tween-80

In the case of CCc1ccc(C)[n+](C)c1, the T/C (dose: 75.0 mg/kg/injection, schedule: Q01DX001 (ip), vehicle: saline) is reported as 96 % of control and the T/C (dose: 150.0 mg/kg/injection, schedule: Q01DX001 (ip), vehicle: saline) is reported as 95 % of control.

CC(C)(C)c1cc(/C=N/NC(=O)CNC(=O)Nc2cccc(C(F)(F)F)c2)cc(C(C)(C)C)c1O was tested, and the T/C (dose: 100.0 mg/kg/injection, schedule: Q01DX001 (ip), vehicle: gum acacia) was 92 % of control and 94 % of control, the T/C (dose: 100.0 mg/kg/injection, schedule: Q04DX002 (ip), vehicle: gum acacia) was 98 % of control and 90 % of control and the T/C (dose: 100.0 mg/kg/injection, schedule: Q04DX003 (ip), vehicle: gum acacia) was 99 % of control and 87 % of control. For the same molecule, the T/C (dose: 200.0 mg/kg/injection, schedule: Q01DX001 (ip), vehicle: gum acacia) was 94 % of control and 90 % of control, the T/C (dose: 200.0 mg/kg/injection, schedule: Q04DX002 (ip), vehicle: gum acacia) was 93 % of control and the T/C (dose: 200.0 mg/kg/injection, schedule: Q04DX003 (ip), vehicle: gum acacia) was 92 % of control and 96 % of control. The T/C (dose: 400.0 mg/kg/injection, schedule: Q01DX001 (ip), vehicle: gum acacia) was 94 % of control and 102 % of control, the T/C (dose: 400.0 mg/kg/injection, schedule: Q04DX002 (ip), vehicle: gum acacia) was 93 % of control and 87 % of control and the T/C (dose: 400.0 mg/kg/injection, schedule: Q04DX003 (ip), vehicle: gum acacia) was 92 % of control and 89 % of control.

COc1cccc2c1C(=O)c1c(O)c3c(c(O)c1C2=O)C[C@@](O)(C(=O)COC(=O)c1ccccc1)C[C@@H]3OC1CC(N)C(O)C(C)O1 (stereo partly drawn) was tested, and the T/C (dose: 0.5 mg/kg/injection, schedule: Q04DX003 (ip), vehicle: Klucel (hydroxypropylcellulose) (HPC)) was 117 % of control, the T/C (dose: 0.8 mg/kg/injection, schedule: Q04DX003 (ip), vehicle: Klucel (hydroxypropylcellulose) (HPC)) was 118 % of control and the T/C (dose: 4.4 mg/kg/injection, schedule: Q04DX003 (ip), vehicle: Klucel (hydroxypropylcellulose) (HPC)) was 152 % of control. For the same molecule, the T/C (dose: 6.8 mg/kg/injection, schedule: Q04DX003 (ip), vehicle: Klucel (hydroxypropylcellulose) (HPC)) was 165 % of control and the T/C (dose: 10.0 mg/kg/injection, schedule: Q04DX003 (ip), vehicle: Klucel (hydroxypropylcellulose) (HPC)) was 172 % of control.

With O=C1CNC(=O)N1CCCl the T/C (dose: 50.0 mg/kg/injection, schedule: Q04DX003 (ip), vehicle: saline) was 100 % of control, the T/C (dose: 100.0 mg/kg/injection, schedule: Q01DX009 (ip), vehicle: saline) was 100 % of control and the T/C (dose: 100.0 mg/kg/injection, schedule: Q04DX003 (ip), vehicle: saline) was 103 % of control. For the same molecule, the T/C (dose: 200.0 mg/kg/injection, schedule: Q01DX009 (ip), vehicle: saline) was 104 % of control, the T/C (dose: 400.0 mg/kg/injection, schedule: Q01DX009 (ip), vehicle: saline) was 113 % of control and the T/C (dose: 400.0 mg/kg/injection, schedule: Q04DX003 (ip), vehicle: saline) was 94 % of control.

Cc1nc(N)cc(Cl)n1 was tested, and the T/C (dose: 100.0 mg/kg/injection, schedule: Q04DX003 (ip), vehicle: Klucel (hydroxypropylcellulose) (HPC)) was 101 % of control, the T/C (dose: 200.0 mg/kg/injection, schedule: Q04DX003 (ip), vehicle: Klucel (hydroxypropylcellulose) (HPC)) was 103 % of control and the T/C (dose: 400.0 mg/kg/injection, schedule: Q04DX003 (ip), vehicle: Klucel (hydroxypropylcellulose) (HPC)) was 90 % of control.

With O=C1N(c2ccccc2)P(Cl)(Cl)(Cl)N1c1ccccc1 the T/C [1] was 93 % of control, the T/C [2] was 110 % of control and the T/C [3] was 93 % of control.

O=P(c1c(F)c(F)c(F)c(F)c1F)(c1c(F)c(F)c(F)c(F)c1F)c1c(F)c(F)c(F)c(F)c1F was tested, and the T/C (dose: 100.0 mg/kg/injection, schedule: Q01DX001 (ip), vehicle: saline with Tween-80) was 91 % of control and the T/C (dose: 200.0 mg/kg/injection, schedule: Q01DX001 (ip), vehicle: saline with Tween-80) was 91 % of control.

For CCOC(=O)[CH2][Sn]([Br])([Br])[CH2]C(=O)OCC, the T/C (dose: 100.0 mg/kg/injection, schedule: Q04DX002 (ip), vehicle: saline with Tween-80) was 94 % of control and the T/C (dose: 200.0 mg/kg/injection, schedule: Q04DX002 (ip), vehicle: saline with Tween-80) was 89 % of control.

For O=S1(=O)CCC(N(/N=C/c2c[nH]c3ccccc23)c2ccccc2)C1 (stereo not drawn), the T/C [1] was 103 % of control, the T/C [2] was 110 % of control and the T/C [3] was 100 % of control.

Cc1ncc(CO)c(/C=N\OCc2cccc(Cl)c2)c1O was tested, and the T/C (dose: 12.5 mg/kg/injection, schedule: Q01DX009 (ip), vehicle: saline) was 100 % of control and the T/C (dose: 25.0 mg/kg/injection, schedule: Q01DX009 (ip), vehicle: saline) was 100 % of control.

Nc1ncnc(N)c1NC(=O)c1ccc(OCCCOc2ccccc2)c(Cl)c1 was tested, and the T/C (dose: 100.0 mg/kg/injection, schedule: Q01DX001 (ip), vehicle: carboxymethylcellulose (CMC)) was 96 % of control, the T/C (dose: 200.0 mg/kg/injection, schedule: Q01DX001 (ip), vehicle: carboxymethylcellulose (CMC)) was 101 % of control and the T/C (dose: 400.0 mg/kg/injection, schedule: Q01DX001 (ip), vehicle: carboxymethylcellulose (CMC)) was 96 % of control.

In the case of COc1cccc2c(Cl)c(CCl)c(C)nc12, the T/C (dose: 12.5 mg/kg/injection, schedule: Q01DX009 (ip), vehicle: saline with Tween-80) is reported as 97 % of control, the T/C (dose: 25.0 mg/kg/injection, schedule: Q01DX009 (ip), vehicle: saline with Tween-80) is reported as 97 % of control and the T/C (dose: 25.0 mg/kg/injection, schedule: Q04DX003 (ip), vehicle: saline with Tween-80) is reported as 92 % of control. For the same molecule, the T/C [4] was 92 % of control, the T/C (dose: 50.0 mg/kg/injection, schedule: Q04DX003 (ip), vehicle: saline with Tween-80) was 97 % of control and the T/C (dose: 100.0 mg/kg/injection, schedule: Q04DX003 (ip), vehicle: saline with Tween-80) was 94 % of control and 96 % of control.

With O=C(Nc1ccc(C2=NCCN2)cc1)c1cc(C(=O)Nc2ccc(C3=NCCN3)cc2)cc([N+](=O)[O-])c1 the T/C (dose: 111.0 mg/kg/injection, schedule: Q01DX Z (ip), vehicle: methylcellulose (MC)) was 100 % of control, the T/C (dose: 167.0 mg/kg/injection, schedule: Q01DX Z (ip), vehicle: methylcellulose (MC)) was 104 % of control and the T/C (dose: 250.0 mg/kg/injection, schedule: Q01DX Z (ip), vehicle: methylcellulose (MC)) was 105 % of control and 207 % of control. For the same molecule, the T/C (dose: 375.0 mg/kg/injection, schedule: Q01DX Z (ip), vehicle: methylcellulose (MC)) was 168 % of control, the T/C (dose: 512.0 mg/kg/injection, schedule: Q01DX Z (ip), vehicle: methylcellulose (MC)) was 234 % of control and the T/C (dose: 768.0 mg/kg/injection, schedule: Q01DX Z (ip), vehicle: methylcellulose (MC)) was 268 % of control.

In the case of COC(=O)c1cc(Cl)ccc1O, the T/C (dose: 37.5 mg/kg/injection, schedule: Q04DX003 (ip), vehicle: Klucel (hydroxypropylcellulose) (HPC)) is reported as 100 % of control, the T/C (dose: 75.0 mg/kg/injection, schedule: Q04DX003 (ip), vehicle: Klucel (hydroxypropylcellulose) (HPC)) is reported as 100 % of control and the T/C (dose: 150.0 mg/kg/injection, schedule: Q04DX003 (ip), vehicle: Klucel (hydroxypropylcellulose) (HPC)) is reported as 92 % of control.

In the case of CN1CCC(OC(=O)C(C)(O)C#Cc2ccccc2)CC1 (stereo not drawn), the T/C (dose: 50.0 mg/kg/injection, schedule: Q01DX001 (ip), vehicle: Klucel (hydroxypropylcellulose) (HPC)) is reported as 102 % of control, the T/C (dose: 100.0 mg/kg/injection, schedule: Q01DX001 (ip), vehicle: Klucel (hydroxypropylcellulose) (HPC)) is reported as 97 % of control and the T/C (dose: 200.0 mg/kg/injection, schedule: Q01DX001 (ip), vehicle: Klucel (hydroxypropylcellulose) (HPC)) is reported as 100 % of control.

In the case of CC1C(=O)C2(C)C3(C)C(=O)C(C)(C(c4ccccc4)=C3c3ccccc3)C2(c2ccccc2)C1c1ccccc1 (stereo not drawn) (tested in a mixture with another compound), the T/C [4] is reported as 98 % of control, the T/C (dose: 100.0 mg/kg/injection, schedule: Q01DX009 (ip), vehicle: saline with Tween-80) is reported as 95 % of control and the T/C (dose: 200.0 mg/kg/injection, schedule: Q01DX009 (ip), vehicle: saline with Tween-80) is reported as 95 % of control.

In the case of O=C(Nc1cccc2ccccc12)OCC(Cl)(Cl)Cl, the T/C (dose: 100.0 mg/kg/injection, schedule: Q01DX009 (ip), vehicle: carboxymethylcellulose (CMC)) is reported as 97 % of control and 98 % of control, the T/C [1] is reported as 108 % of control and the T/C (dose: 100.0 mg/kg/injection, schedule: Q04DX002 (ip), vehicle: carboxymethylcellulose (CMC)) is reported as 108 % of control and 90 % of control. The T/C (dose: 100.0 mg/kg/injection, schedule: Q04DX003 (ip), vehicle: carboxymethylcellulose (CMC)) was 103 % of control, the T/C (dose: 200.0 mg/kg/injection, schedule: Q01DX009 (ip), vehicle: carboxymethylcellulose (CMC)) was 95 % of control and 90 % of control and the T/C [2] was 96 % of control. The T/C (dose: 200.0 mg/kg/injection, schedule: Q04DX002 (ip), vehicle: carboxymethylcellulose (CMC)) was 95 % of control and 97 % of control, the T/C (dose: 200.0 mg/kg/injection, schedule: Q04DX003 (ip), vehicle: carboxymethylcellulose (CMC)) was 97 % of control and the T/C (dose: 400.0 mg/kg/injection, schedule: Q01DX009 (ip), vehicle: carboxymethylcellulose (CMC)) was 95 % of control and 97 % of control. For the same molecule, the T/C [3] was 108 % of control, the T/C (dose: 400.0 mg/kg/injection, schedule: Q04DX002 (ip), vehicle: carboxymethylcellulose (CMC)) was 97 % of control and 87 % of control and the T/C (dose: 400.0 mg/kg/injection, schedule: Q04DX003 (ip), vehicle: carboxymethylcellulose (CMC)) was 94 % of control.

Source: PubChem BioAssay AID248 (DTP/NCI, 2004)
